This note sets out measurements from US20240083857A1, “2-Methyl-Quinazolines” (Bayer Pharma Aktiengesellschaft, priority 2017, published 2024).

Each structure is given as a SMILES string. pIC50: −log10 of the molar value.

Experiment [1] concerns the target K-Ras^G12C : hSOS1 interaction (Homo sapiens, UniProt Q07889). Description: Biochemical assay 1: K-Ras^G12C interaction assay with hSOS1 (HTRF). It is filed as binding. Conditions: read-out: Assay 1 (KRAS-SOS Interaction) activity expressed as IC50.
Experiment [2] addresses Epidermal Growth Factor Receptor (EGFR) (Homo sapiens (Human), UniProt P00533). As to the kind of experiment: EGFR kinase assay (TR-FRET). In kind it is biochemical. Conditions: values given in μM; read-out: EGFR kinase inhibition IC50. Put shortly:
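Read-out is the 665/620 nm HTRF ratio, from a Tb-cryptate anti-phosphotyrosine antibody and streptavidin-XL665 bound to phosphorylated biotin-peptide substrate. The enzyme, A431-derived EGFR (~3 U/ml), was given 15 min compound pre-binding at 22° C in Hepes pH 7.0 with Mg2+/Mn2+ before reaction.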
A general note: TR-FRET usually uses a lanthanide donor and a delayed reading to cut background.

Chain of Epidermal Growth Factor Receptor (EGFR) (P00533 25-1210): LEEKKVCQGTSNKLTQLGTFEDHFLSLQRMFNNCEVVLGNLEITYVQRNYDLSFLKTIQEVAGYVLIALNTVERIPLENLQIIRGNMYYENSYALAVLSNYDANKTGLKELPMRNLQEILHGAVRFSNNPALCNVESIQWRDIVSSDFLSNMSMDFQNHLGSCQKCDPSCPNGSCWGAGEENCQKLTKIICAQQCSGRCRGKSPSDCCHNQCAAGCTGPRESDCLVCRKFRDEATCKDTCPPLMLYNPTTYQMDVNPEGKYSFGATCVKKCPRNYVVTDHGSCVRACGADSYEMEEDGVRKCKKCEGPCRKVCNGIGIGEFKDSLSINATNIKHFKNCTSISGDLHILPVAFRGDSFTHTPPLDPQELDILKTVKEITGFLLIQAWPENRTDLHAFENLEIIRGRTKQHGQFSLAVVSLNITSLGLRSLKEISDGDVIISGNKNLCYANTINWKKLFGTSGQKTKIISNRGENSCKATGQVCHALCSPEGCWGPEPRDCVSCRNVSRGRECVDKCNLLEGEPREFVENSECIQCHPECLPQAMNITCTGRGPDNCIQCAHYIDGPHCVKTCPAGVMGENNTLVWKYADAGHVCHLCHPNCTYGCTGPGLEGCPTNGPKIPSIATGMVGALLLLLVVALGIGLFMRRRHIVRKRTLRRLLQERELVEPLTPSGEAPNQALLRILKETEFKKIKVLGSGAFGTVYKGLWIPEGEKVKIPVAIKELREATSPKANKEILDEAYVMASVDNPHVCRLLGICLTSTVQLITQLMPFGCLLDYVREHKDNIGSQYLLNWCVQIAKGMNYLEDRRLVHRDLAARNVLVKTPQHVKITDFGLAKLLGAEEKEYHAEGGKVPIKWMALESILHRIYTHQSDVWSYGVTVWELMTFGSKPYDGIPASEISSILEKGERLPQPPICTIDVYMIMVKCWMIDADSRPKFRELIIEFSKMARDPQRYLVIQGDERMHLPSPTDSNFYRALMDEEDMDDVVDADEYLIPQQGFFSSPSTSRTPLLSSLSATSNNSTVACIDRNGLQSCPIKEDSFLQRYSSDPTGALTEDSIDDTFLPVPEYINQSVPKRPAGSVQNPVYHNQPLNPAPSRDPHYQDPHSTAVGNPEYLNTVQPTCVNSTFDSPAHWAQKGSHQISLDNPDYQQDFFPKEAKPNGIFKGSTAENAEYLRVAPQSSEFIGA

In general, pIC50 refers to the negative decadic logarithm of the IC50, by convention in mol/L. Usually IC50 stands for the point on the concentration scale where inhibition reaches its midpoint. On to `COc1cc2nc(C)nc(NC(C)c3ccc(-c4cccc(C(N)=O)c4)s3)c2cc1OC` (stereo not shown) [Example 241, 3-(5-{1-[(6,7-dimethoxy-2-methylquinazolin-4-yl)amino]ethyl}thiophen-2-yl)benzamide], for which the pIC50 in experiment [1] is 5.95. For the same molecule, the IC50 in experiment [2] is > 20 µM.
The matching figures for `COc1cc2nc(C)nc(NC(C)c3ccc(-c4ccc(C(N)=O)cc4)s3)c2cc1OC` (stereo not shown) [Example 242, 4-(5-{1-[(6,7-dimethoxy-2-methylquinazolin-4-yl)amino]ethyl}thiophen-2-yl)benzamide]: 5.74 and > 20 µM.
For the molecule `COc1cc2nc(C)nc(NC(C)c3ccc(-c4ccccc4N)s3)c2cc1OC` (stereo not shown) [Example 243, N-{1-[5-(2-aminophenyl)thiophen-2-yl]ethyl}-6,7-dimethoxy-2-methylquinazolin-4-amine], the pIC50 in experiment [1] is 6.60. Also, in experiment [2], the IC50 was > 20 µM.
The matching figures for `COc1cc2nc(C)nc(NC(C)c3ccc(-c4ccccc4CO)s3)c2cc1OC` (stereo not shown) [Example 244, [2-(5-{1-[(6,7-dimethoxy-2-methylquinazolin-4-yl)amino]ethyl}thiophen-2-yl)phenyl]methanol]: 6.55 and > 20 µM.
For `COc1cc2nc(C)nc(NC(C)c3ccc(-c4ccccc4C#N)s3)c2cc1OC` (stereo not shown) [Example 245, 2-(5-{1-[(6,7-dimethoxy-2-methylquinazolin-4-yl)amino]ethyl}thiophen-2-yl)benzonitrile], in that order: 6.23 and > 20 µM.
For `COc1cc2nc(C)nc(NC(C)c3ccc(-c4cccc5cn[nH]c45)s3)c2cc1OC` (stereo not shown) [Example 246, N-{1-[5-(1H-indazol-7-yl)thiophen-2-yl]ethyl}-6,7-dimethoxy-2-methylquinazolin-4-amine], in that order: 5.12 and > 20 µM.
For the molecule `COc1cc2nc(C)nc(NC(C)c3ccc(-c4cccc5[nH]ncc45)s3)c2cc1OC` (stereo not shown) [Example 247, N-{1-[5-(1H-indazol-4-yl)thiophen-2-yl]ethyl}-6,7-dimethoxy-2-methylquinazolin-4-amine], the pIC50 in experiment [1] was 6.23. Moreover, in experiment [2], the IC50 is > 20 µM.
`C=Cc1ccccc1-c1ccc(C(C)Nc2nc(C)nc3cc(OC)c(OC)cc23)s1` (stereo not shown) [Example 248, N-{1-[5-(2-ethenylphenyl)thiophen-2-yl]ethyl}-6,7-dimethoxy-2-methylquinazolin-4-amine]: in experiment [1], the pIC50 was 5.83. Further, in experiment [2], the IC50 was > 20 µM.
For `COc1cc2nc(C)nc(NC(C)c3ccc(-c4cnn(CC(N)=O)c4)s3)c2cc1OC` (stereo not shown) [Example 249, 2-[4-(5-{1-[(6,7-dimethoxy-2-methylquinazolin-4-yl)amino]ethyl}thiophen-2-yl)-1H-pyrazol-1-yl]acetamide], in that order: 5.21 and > 20 µM.
The matching figures for `CNCc1ccccc1-c1ccc(C(C)Nc2nc(C)nc3cc(OC)c(OC)cc23)s1` (stereo not shown) [Example 250, 6,7-dimethoxy-2-methyl-N-[1-(5-{2-[(methylamino)methyl]phenyl}thiophen-2-yl)ethyl]quinazolin-4-amine]: 7.30 and > 20 µM.
For `COc1cc2nc(C)nc(NC(C)c3csc(-c4cnn(CCO)c4)c3)c2cc1OC` (stereo not shown) [Example 251, 2-[4-(4-{1-[(6,7-dimethoxy-2-methylquinazolin-4-yl)amino]ethyl}thiophen-2-yl)-1H-pyrazol-1-yl]ethanol], the negative logarithm of the IC50 (pIC50) in experiment [1] is 5.34. The half-inhibitory concentration (IC50) in experiment [2] is > 20 µM.
For `COc1cc2nc(C)nc(NC(C)c3ccc(-c4ccccc4CN)s3)c2cc1OC` (stereo not shown) [Example 252, N-[1-{5-[2-(aminomethyl)phenyl]thiophen-2-yl}ethyl]-6,7-dimethoxy-2-methylquinazolin-4-amine], in that order: 7.10 and > 20 µM.
The matching figures for `COc1cc2nc(C)nc(NC(C)c3csc(-c4cnc5n4CCC5)c3)c2cc1OC` (stereo not shown) [Example 253, N-{1-[5-(6,7-dihydro-5H-pyrrolo[1,2-a]imidazol-3-yl)thiophen-3-yl]ethyl}-6,7-dimethoxy-2-methylquinazolin-4-amine]: 5.88 and > 20 µM.
For `COc1cc2nc(C)nc(NC(C)c3csc(-c4cnn(CCN5CCCC5)c4)c3)c2cc1OC` (stereo not shown) [Example 254, 6,7-dimethoxy-2-methyl-N-[1-(5-{1-[2-(pyrrolidin-1-yl)ethyl]-1H-pyrazol-4-yl}thiophen-3-yl)ethyl]quinazolin-4-amine], in that order: 6.09 and > 20 µM.
Regarding `COc1cc2nc(C)nc(NC(C)c3csc(-c4ccc(F)cc4CN)c3)c2cc1OC` (stereo not shown) [Example 255, N-[1-{5-[2-(aminomethyl)-4-fluorophenyl]thiophen-3-yl}ethyl]-6,7-dimethoxy-2-methylquinazolin-4-amine], in experiment [1], the pIC50 is 6.61. Also, in experiment [2], the IC50 is > 20 µM.
For `COc1cc2nc(C)nc(N[C@H](C)c3cccc(-c4cnn(CCO)c4)c3)c2cc1OC` [Example 256, 2-[4-(3-{(1R)-1-[(6,7-dimethoxy-2-methylquinazolin-4-yl)amino]ethyl}phenyl)-1H-pyrazol-1-yl]ethanol], in that order: 6.33 and > 20 µM.
For `COc1cc2nc(C)nc(N[C@H](C)c3cccc(-c4cnn(CCN5CCCC5)c4)c3)c2cc1OC` [Example 257, 6,7-dimethoxy-2-methyl-N-[(1R)-1-(3-{1-[2-(pyrrolidin-1-yl)ethyl]-1H-pyrazol-4-yl}phenyl)ethyl]quinazolin-4-amine], in that order: 6.44 and > 20 µM.
